Assay results: patent US8414878B2, “Irilis biopreparation based on bacillus-strain bacteria, bacillus subtilis and bacillus licheniformis contained therein” (priority 2005, dated 2013)

Legend:
B. subtilis VKPMB-8611 = experiment: Sensitivity to antibiotics, delay zones of culture growth; assay type: cell-based, Bacillus subtilis; conditions: strain B. subtilis VKPMB-8611
[1] = test system: B. licheniformis VKPM B-8610; experiment: as above; assay type: cell-based, Bacillus licheniformis; conditions: strain B. licheniformis VKPM B-8610

| Compound | Diameter of delay zones of cultures growth (B. subtilis VKPMB-8611) | Diameter of delay zones of cultures growth [1] |
| --- | --- | --- |
| CC1(C)S[C@@H]2[C@H](NC(=O)Cc3ccccc3)C(=O)N2[C@H]1C(=O)O [Benzylpenicillin] | 7 ± 0.1 mm | 3 ± 0.2 mm |
| C[C@@H](O)[C@H]1C(=O)N2C(C(=O)O)=C(SCCN=CN)C[C@H]12 [Imipenems] | 38 ± 0.2 mm | 30 + 0.1 mm |
| CO/N=C(\C(=O)N[C@@H]1C(=O)N2C(C(=O)O)=C(COC(N)=O)CS[C@H]12)c1ccco1 [Cefuroxime] | 2 ± 0.1 mm | 3 ± 0.1 mm |
| CCN1CCN(C(=O)N[C@@H](C(=O)N[C@@H]2C(=O)N3C(C(=O)O)=C(CSc4nnnn4C)CS[C@H]23)c2ccc(O)cc2)C(=O)C1=O [Cefoperazone] | 15 ± 0.2 mm | 13 + 0.1 mm |
| CO/N=C(\C(=O)N[C@@H]1C(=O)N2C(C(=O)O)=CCS[C@H]12)c1csc(N)n1 [Ceftizoxime] | 3 ± 0.1 mm | 11 ± 0.1 mm |
| NC[C@H]1O[C@H](O[C@H]2[C@H](O)[C@@H](O[C@H]3O[C@H](CO)[C@@H](O)[C@H](N)[C@H]3O)[C@H](N)C[C@@H]2N)[C@H](N)C[C@@H]1O [Tobramycin] | 25 ± 0.1 mm | 20 + 0.2 mm |
| O=C(N[C@H](CO)[C@H](O)c1ccc([N+](=O)[O-])cc1)C(Cl)Cl [Chloramphenicol] | 18 ± 0.3 mm | 10 ± 0.1 mm |
| CCN1CCN(C(=O)N[C@@H](C(=O)N[C@@H]2C(=O)N3[C@@H]2SC(C)(C)[C@@H]3C(=O)O)c2ccccc2)C(=O)C1=O [Piperacillin] | 15 + 03 mm | 11 + 0.1 mm |
| Cn1nnnc1SCC1=C(C(=O)O)N2C(=O)[C@@H](NC(=O)[C@H](O)c3ccccc3)[C@H]2SC1 [Cefamandole] | 35 ± 0.3 mm | 15 + 0.1 mm |
| Cc1onc(-c2ccccc2)c1C(=O)N[C@@H]1C(=O)N2[C@@H]1SC(C)(C)[C@@H]2C(=O)O [Oxacillin] | 15 ± 0.3 mm | 11 + 0.1 mm |
| CCn1cc(C(=O)O)c(=O)c2ccc(C)nc21 [Nalidixic acid] | 21 ± 0.1 mm | 15 + 0.1 mm |
| CC1(C)S[C@@H]2[C@H](NC(=O)C(C(=O)O)c3ccccc3)C(=O)N2[C@H]1C(=O)O (stereo partly drawn) [Carbenicillin] | 23 ± 0.5 mm | 20 + 0.1 mm |
| CC1(C)S[C@@H]2[C@H](NC(=O)[C@H](N)c3ccccc3)C(=O)N2[C@H]1C(=O)O [Ampicillin] | 11 ± 0.2 mm | 0 mm |
| COc1cc(Cc2cnc(N)nc2N)cc(OC)c1OC [Ttrimethoprim] | 23 ± 0.1 mm | 25 + 0.2 mm |
| CCn1cc(C(=O)O)c(=O)c2cc(F)c(N3CCNCC3)cc21 [Norfloxacin] | 24 ± 0.2 mm | 25 + 0.2 mm |
| CN(C)[C@@H]1C(O)=C(C(N)=O)C(=O)[C@@]2(O)C(O)=C3C(=O)c4c(O)cccc4[C@@](C)(O)[C@H]3C[C@@H]12 [Tetracycline] | 26 + 0.1 mm | 24 + 0.1 mm |
| COc1cccc(OC)c1C(=O)N[C@@H]1C(=O)N2[C@@H]1SC(C)(C)[C@@H]2C(=O)O [Methicillin] | 20 ± 0.1 mm | 10 ± 0D |
| Cc1nnc(SCC2=C(C(=O)O)N3C(=O)[C@@H](NC(=O)Cn4cnnn4)[C@H]3SC2)s1 [Cefazolin] | 25 ± 0.2 mm | 19 + 0.2 mm |

| Compound | Diameter of delay zones of cultures growth (B. subtilis VKPMB-8611) | Diameter of delay zones of cultures growth [1] |
| --- | --- | --- |
| CC(C)(O/N=C(\C(=O)N[C@@H]1C(=O)N2C(C(=O)[O-])=C(C[n+]3ccccc3)CS[C@H]12)c1csc(N)n1)C(=O)O [Ceftazidime] | 6 ± 0.3 mm | 13 + 02 mm |
| CC1(C)S[C@@H]2[C@H](NC(=O)[C@H](NC(=O)N3CCN(S(C)(=O)=O)C3=O)c3ccccc3)C(=O)N2[C@H]1C(=O)O [Mezlocillin] | 21 ± 0.2 mm | 15 + 0.2 mm |
| CO[C@@]1(NC(=O)C(C(=O)O)c2ccc(O)cc2)C(=O)N2C(C(=O)O)=C(CSc3nnnn3C)CO[C@@H]21 (stereo partly drawn) [Mocsalactam] | – | 12 + 03 mm |
| NC[C@H]1O[C@H](O[C@H]2[C@H](O)[C@@H](O[C@H]3O[C@H](CO)[C@@H](O)[C@H](N)[C@H]3O)[C@H](N)C[C@@H]2N)[C@H](O)[C@@H](O)[C@@H]1O [Kanamycin] | 22 ± 0.2 mm | 21 + 0.1 mm |
| O=C1CN(/N=C/c2ccc([N+](=O)[O-])o2)C(=O)N1 [Nitrofurantoin] | 15 + 0.2 mm | 20 + 0.1 mm |
| Polymyxin E | 11 + 0.1 mm | 10 + 0.2 mm |
| CN[C@H](CC(C)C)C(=O)N[C@H]1C(=O)N[C@@H](CC(N)=O)C(=O)N[C@H]2C(=O)N[C@H]3C(=O)N[C@H](C(=O)N[C@H](C(=O)O)c4cc(O)cc(O)c4-c4cc3ccc4O)[C@H](O)c3ccc(c(Cl)c3)Oc3cc2cc(c3O[C@@H]2O[C@H](CO)[C@@H](O)[C@H](O)[C@H]2O[C@H]2C[C@](C)(N)[C@H](O)[C@H](C)O2)Oc2ccc(cc2Cl)[C@H]1O [Vancomycin] | 12 ± 0.1 mm | 10 ± 0.1 mm |
| CC(=O)OCC1=C(C(=O)O)N2C(=O)[C@@H](NC(=O)Cc3cccs3)[C@H]2SC1 [Cephalothin] | 35 ± 0.1 mm | 21 + 0.3 mm |
| CO[C@@]1(NC(=O)Cc2cccs2)C(=O)N2C(C(=O)O)=C(COC(N)=O)CS[C@@H]21 [Cefoxitin] | 18 ± 0.1 mm | 13 + 0.1 mm |
| NCC[C@H](O)C(=O)N[C@@H]1C[C@H](N)[C@@H](O[C@H]2O[C@H](CN)[C@@H](O)[C@H](O)[C@H]2O)[C@H](O)[C@H]1O[C@H]1O[C@H](CO)[C@@H](O)[C@H](N)[C@H]1O [Amicacin] | 22 ± 0.3 mm | 17 + 0.2 mm |
| CCC[C@@H]1C[C@@H](C(=O)N[C@@H]([C@H]2O[C@H](SC)[C@H](O)[C@@H](O)[C@H]2O)[C@H](C)Cl)N(C)C1 [Clindamycin] | 9 + 0.2 mm | 12 + 0.1 mm |
| CO/N=C(\C(=O)N[C@@H]1C(=O)N2C(C(=O)O)=C(CSc3nc(=O)c(=O)[nH]n3C)CS[C@H]12)c1csc(N)n1 [Ceftriaxone] | 20 + 0.4 mm | 12 + 02 mm |
| CO/N=C(\C(=O)N[C@@H]1C(=O)N2C(C(=O)O)=C(COC(C)=O)CS[C@H]12)c1csc(N)n1 [Cefotaxime] | 15 ± 0.1 mm | 9 + 0.1 mm |
| Gentamicin | 25 ± 0.3 mm | 19 + 0.2 mm |
| CC1(C)S[C@@H]2[C@H](NC(=O)[C@H](NC(=O)N3CCNC3=O)c3ccccc3)C(=O)N2[C@H]1C(=O)O [Azlocillin] | 19 ± 0.1 mm | 16 + 0.1 mm |
| CC1(C)S[C@@H]2[C@H](NC(=O)[C@H](C(=O)O)c3ccsc3)C(=O)N2[C@H]1C(=O)O [Ticarcillin] | 25 ± 0.4 mm | 21 + 0.2 mm |
| CC1(C)S[C@@H]2[C@H](NC(=O)[C@H](N)c3ccc(O)cc3)C(=O)N2[C@H]1C(=O)O [Amoscipillin] | 19 ± 0.2 mm | 16 + 0.1 mm |
